Results reported in patent publication US12281057B2 (VERTEX PHARMACEUTICALS INCORPORATED, priority 2017, dated 2025).

Biological target: truncated form of human NaV 1.8 with full channel activity (Homo sapiens, UniProt Q9Y5Y9)
Assay: E-VIPR Assay Method A for detecting and measuring Nav inhibition (HEK cells, membrane potential FRET dyes, electrical stimulation)
Type: cell-based
Conditions: HEK cells expressing human NaV 1.8, HS (human serum) in compound loading buffer, 11 point dose response, top dose 3 μM, Table 20A, read-out: Nav 1.8 MedChem Optical Assay EVIPR Assay Method A HS IC50
From the text: E-VIPR Assay Method A for Detecting and Measuring Nav Inhibition Properties Sodium ion channels are voltage-dependent proteins that can be activated by inducing membrane voltage changes by applying electric fields. The electrical stimulation instrument and methods of use, referred to as E-VIPR, are described in International Publication No. WO 2002/008748 A3 and C.-J. Huang et al. Characterization of voltage-gated sodium channel blockers by electrical stimulation and fluorescence detection of membrane potential, 24 Nature Biotech. 439-46 (2006), both of which are incorporated by reference in their entirety. The instrument comprises a microtiter plate handler, an optical system for exciting the coumarin dye while simultaneously recording the coumarin and oxonol emissions, a waveform generator, a current- or voltage-controlled amplifier, and parallel electrode pairs that are inserted into assay plate wells. Under integrated computer control, this instrument passes user-programmed electrical stimulus protocols to cells within the wells of the microtiter plate. […] Sigma #F4135), 1% NEAA (Non-Essential Amino Acids, Life Tech #11140), 1% HEPES (Life Tech #15630), 1% Pen-Strep (Penicillin-Streptomycin; […] Cells were expanded in vented cap flasks, with 95% humidity and 5% CO2. Reagents and Stock Solutions: • 100 mg/mL Pluronic F-127 (Sigma #P2443), in dry DMSO • Compound Plates: […] 5% KIR 2.1 Bacmam virus (produced in-house), prepared as described in Section 3.3 of J. A. […] The solution was made by adding 10% Pluronic F127 stock equal to combined volumes of CC2-DMPE and DiSBAC6(3). The order of preparation was first mix Pluronic and CC2-DMPE, then add DiSBAC6(3), then while vortexing add Bath1/β-Cyclodextrin. […] Assay Protocol: […] Final DMSO concentration for all wells in the assay was 0.625% (0.75% DMSO was supplemented to the Compound Loading Buffer for a final DMSO concentration of 0.625%). […] 3) Cell plates were prepared. On the day of the assay, the media was aspirated, and the cells were washed three times with 80 μL of Bath-1 buffer, maintaining 25 μL residual volume in each well. 4) 25 μL per well of Hexyl Dye Solution was dispensed into the cell plates. The cells were incubated for 20 minutes at room temp or ambient conditions in darkness. 5) 80 μL per well of Compound Loading Buffer was dispensed into compound plates. 6) The cell plates were washed three times with 80 μL per well of Bath-1 Buffer, leaving 25 µL of residual volume. Then 25 uL per well from compound plate was transferred to each cell plate. The mixture was incubated for 30 minutes at room temp/ambient conditions. 7) The plate was read on E-VIPR using the current-controlled amplifier to deliver stimulation wave pulses using the following protocol: 1.25 Amps, 2.5 ms pulse width biphasic waveform, 10 Hz for 10 seconds at a scan rate of 200 Hz. A pre-stimulus recording was performed for 0.5 seconds to obtain the un-stimulated intensities baseline. The stimulatory waveform was followed by 0.5 seconds of post-stimulation recording to examine the relaxation to the resting state. Data Analysis: Data were analyzed and reported as normalized ratios of emission intensities measured in the 460 nm and 580 nm channels. The response as a function of time was reported as the ratios obtained using the following formula: […] The data were further reduced by calculating the initial (Ri) and final (Rf) ratios. These were the average ratio values during part or all of the pre-stimulation period and during sample points during the stimulation period. The fluorescence ratio (Rf/Ri) was then calculated and reported as a function of time. Control responses were obtained by performing assays in the presence of the positive control, and in the absence of pharmacological agents (DMSO vehicle negative control). Responses to the negative (N) and positive (P) controls were calculated as above. The compound antagonist % activity A was then defined as: [formula] where X is the ratio response of the test compound. […]

truncated form of human NaV 1.8 with full channel activity, sequence (Q9Y5Y9 126-1722 limits assumed): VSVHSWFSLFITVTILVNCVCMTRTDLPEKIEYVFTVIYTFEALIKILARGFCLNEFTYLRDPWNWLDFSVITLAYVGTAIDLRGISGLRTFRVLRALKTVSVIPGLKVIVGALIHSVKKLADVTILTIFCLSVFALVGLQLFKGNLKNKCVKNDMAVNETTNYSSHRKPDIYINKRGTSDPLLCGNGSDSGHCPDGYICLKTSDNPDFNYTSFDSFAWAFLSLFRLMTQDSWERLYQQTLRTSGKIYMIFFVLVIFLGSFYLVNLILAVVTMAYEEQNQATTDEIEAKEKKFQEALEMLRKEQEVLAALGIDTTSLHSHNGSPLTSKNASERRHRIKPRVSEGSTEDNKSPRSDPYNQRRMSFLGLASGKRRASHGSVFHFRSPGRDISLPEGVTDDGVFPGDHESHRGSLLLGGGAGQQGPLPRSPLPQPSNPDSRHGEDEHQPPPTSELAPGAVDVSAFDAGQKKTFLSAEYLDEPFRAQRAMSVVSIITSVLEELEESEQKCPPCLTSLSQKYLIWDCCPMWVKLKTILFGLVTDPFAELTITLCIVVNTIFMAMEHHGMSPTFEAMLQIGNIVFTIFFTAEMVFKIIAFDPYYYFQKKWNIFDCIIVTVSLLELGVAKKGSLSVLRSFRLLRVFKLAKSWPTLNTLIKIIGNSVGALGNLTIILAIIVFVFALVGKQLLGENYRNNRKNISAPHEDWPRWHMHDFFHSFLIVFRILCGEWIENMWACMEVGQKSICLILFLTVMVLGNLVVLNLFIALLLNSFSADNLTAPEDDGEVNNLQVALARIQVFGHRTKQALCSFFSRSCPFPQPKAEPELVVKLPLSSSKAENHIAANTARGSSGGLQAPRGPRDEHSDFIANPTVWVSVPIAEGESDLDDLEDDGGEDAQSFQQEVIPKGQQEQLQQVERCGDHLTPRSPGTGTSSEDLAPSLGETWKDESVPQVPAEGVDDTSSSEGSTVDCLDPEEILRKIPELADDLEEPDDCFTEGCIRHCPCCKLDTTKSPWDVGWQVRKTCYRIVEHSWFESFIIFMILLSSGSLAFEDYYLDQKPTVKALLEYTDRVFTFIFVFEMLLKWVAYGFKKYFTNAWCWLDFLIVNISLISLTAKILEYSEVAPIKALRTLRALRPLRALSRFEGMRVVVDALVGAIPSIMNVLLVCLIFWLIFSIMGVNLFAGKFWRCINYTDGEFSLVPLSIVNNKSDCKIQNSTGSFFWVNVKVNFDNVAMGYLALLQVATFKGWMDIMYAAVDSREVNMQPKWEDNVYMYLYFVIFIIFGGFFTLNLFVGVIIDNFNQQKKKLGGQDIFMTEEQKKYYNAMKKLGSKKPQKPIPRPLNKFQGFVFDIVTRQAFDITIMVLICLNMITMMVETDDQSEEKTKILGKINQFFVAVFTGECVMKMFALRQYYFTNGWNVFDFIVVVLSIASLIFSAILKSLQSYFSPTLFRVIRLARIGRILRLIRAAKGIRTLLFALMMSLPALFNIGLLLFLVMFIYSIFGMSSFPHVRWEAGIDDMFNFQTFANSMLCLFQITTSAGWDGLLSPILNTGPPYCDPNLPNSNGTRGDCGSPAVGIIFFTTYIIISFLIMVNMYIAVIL

IC50 | Structure (SMILES)
5 nM | COc1cc(OC(F)(F)F)ccc1Oc1cc(C(F)(F)F)cc(F)c1C(=O)Nc1ccc(F)c(C(N)=O)c1 [Compound 140, N-(3-Carbamoyl-4-fluoro-phenyl)-2-fluoro-6-[2-methoxy-4-(trifluoromethoxy)phenoxy]-4-(trifluoromethyl)benzamide]
34 nM | COc1cc(OC(F)(F)F)ccc1Oc1cccc(C(F)(F)F)c1C(=O)Nc1ccc(F)c(C(N)=O)c1 [Compound 40, N-(3-Carbamoyl-4-fluoro-phenyl)-2-[2-methoxy-4-(trifluoromethoxy)phenoxy]-6-(trifluoromethyl)benzamide]
3 nM | CNC(=O)c1cc(NC(=O)c2c(Oc3ccc(OC(F)(F)F)cc3OC)ccc(C(F)(F)F)c2F)ccc1F [Compound 99, 2-fluoro-N-[4-fluoro-3-(methylcarbamoyl)phenyl]-6-[2-methoxy-4-(trifluoromethoxy)phenoxy]-3-(trifluoromethyl)benzamide]
150 nM | COc1cc(OC(F)(F)F)ccc1Oc1ccc(C(F)(F)F)c(F)c1C(=O)Nc1cc(C(N)=O)ccn1 [Compound 87, 2-[[2-fluoro-6-[2-methoxy-4-(trifluoromethoxy)phenoxy]-3-(trifluoromethyl)benzoyl]amino]pyridine-4-carboxamide]
17 nM | [2H]C([2H])([2H])Oc1cc(OC(F)(F)F)ccc1Oc1ccc(OC(F)F)c(F)c1C(=O)Nc1ccnc(C(N)=O)c1 [Compound 155, 4-[[3-(Difluoromethoxy)-2-fluoro-6-[2-(trideuteriomethoxy)-4-(trifluoromethoxy)phenoxy]benzoyl]amino]pyridine-2-carboxamide]
220 nM | Cc1cc(F)c(C(N)=O)cc1NC(=O)c1c(Oc2ccc(OC(F)(F)F)cc2)ccc(C(F)(F)F)c1F [Compound 124, N-(5-Carbamoyl-4-fluoro-2-methyl-phenyl)-2-fluoro-6-[4-(trifluoromethoxy)phenoxy]-3-(trifluoromethyl)benzamide]
170 nM | COc1cc(F)ccc1-c1cc(C(C)(C)C)ncc1C(=O)Nc1ccc(F)c(C(N)=O)c1 [Compound 199, 6-tert-butyl-N-(3-carbamoyl-4-fluoro-phenyl)-4-(4-fluoro-2-methoxy-phenyl)pyridine-3-carboxamide]
430 nM | COc1cc(OC(F)(F)F)ccc1Oc1cc(Cl)cc(OC)c1C(=O)Nc1cc(C(N)=O)ncc1C [Compound 133, 4-[[4-Chloro-2-methoxy-6-[2-methoxy-4-(trifluoromethoxy)phenoxy]benzoyl]amino]-5-methyl-pyridine-2-carboxamide]
5 nM | [2H]C([2H])([2H])Oc1c(Oc2ccc(C(F)F)c(F)c2C(=O)Nc2ccnc(C(N)=O)c2)ccc(OC(F)(F)F)c1F [Compound 235, 4-[[3-(Difluoromethyl)-2-fluoro-6-[3-fluoro-2-(trideuteriomethoxy)-4-(trifluoromethoxy)phenoxy]benzoyl]amino]pyridine-2-carboxamide]
11 nM | COc1ccc(Oc2ccc(C(F)(F)F)c(F)c2C(=O)Nc2ccnc(C(N)=O)c2)c(OC)c1 [Compound 195, 4-[[6-(2,4-Dimethoxyphenoxy)-2-fluoro-3-(trifluoromethyl)benzoyl]amino]pyridine-2-carboxamide]
38 nM | NC(=O)c1cc(NC(=O)c2c(Oc3ccc(OC(F)(F)F)cc3)cnc(C(F)(F)F)c2F)ccn1 [Compound 61, N-(2-Carbamoyl-4-pyridyl)-3-fluoro-5-[4-(trifluoromethoxy)phenoxy]-2-(trifluoromethyl)pyridine-4-carboxamide]
50 nM | COc1cc(OC(F)(F)F)ccc1Oc1cc(C2CC2(F)F)ncc1C(=O)Nc1ccc(F)c(C(N)=O)c1 (stereo not drawn) [Compound 108, N-(3-Carbamoyl-4-fluoro-phenyl)-6-(2,2-difluorocyclopropyl)-4-[2-methoxy-4-(trifluoromethoxy)phenoxy]pyridine-3-carboxamide]
